# Experimental data: patent US20130040951A9, “PROPHYLACTIC OR THERAPEUTIC AGENT FOR CANCER” (Takeda Pharmaceutical Company Limited, priority 2009, published 2013)
# Key:
# [1] = tested on: ES-2 ovarian cancer cells; test: Cell proliferation inhibitory test (CCK-8); assay type: cell-based; settings: compound final concentration 10 μM, 72 hr; CCK-8 absorbance at 450 nm; DMSO alone = 0%, cell-free well with medium only = 100%; read-out: inhibition rate (%) at 10 μM
# Experimental: Cell Proliferation Inhibitory Test
# ES-2 ovarian cancer cells were seeded in a 96 well plate at 1×10^3 cells/well, and incubated at 37° C. in the presence of 5% CO2 for 24 hr. Then, the compound was added at a final concentration of 10 μM, and the cells were cultured at 37° C. in the presence of 5% CO2 for 72 hr. For activity measurement of viable cells, a CCK-8 reagent (Cell Counting Kit-8, DOJINDO) was added, the cells were incubated at 37° C. for 1.5 hr, and the absorbance at 450 nm was measured by a microplate reader. Assuming the dehydrogenase activity in the DMSO alone addition group as 0%, and that in a cell-free well containing only a medium as 100%, the dehydrogenase activity of the compound addition group was calculated in percentage.
# [2] = target: T1, GST-ERRα ligand-binding domain (Homo sapiens, UniProt P11474); test: HTRF assay system using ERRα ligand-binding domain (biotinylated SRC-1 (676-700) peptide); assay type: biochemical; settings: compound final concentration 3 μM, room temperature 2 hr; 615/665 ratio value; no compound = 0%, 10 μM XCT-790 = 100%; read-out: inhibition rate (%) at 3 μM
# T1 sequence (P11474 193-421 limits assumed): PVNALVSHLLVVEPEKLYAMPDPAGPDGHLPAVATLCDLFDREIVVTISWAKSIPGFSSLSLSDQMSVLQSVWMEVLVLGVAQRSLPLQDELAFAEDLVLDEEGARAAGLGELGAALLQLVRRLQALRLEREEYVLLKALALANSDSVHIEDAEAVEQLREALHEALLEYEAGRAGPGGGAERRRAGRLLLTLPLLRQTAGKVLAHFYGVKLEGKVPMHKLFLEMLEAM
# Experimental: Compound Evaluation in HTRF Assay System Using ERRα Ligand-Binding Domain
# An assay buffer (25 mM HEPES, 100 mM NaCl, 1 mM DTT, 0.1% BSA) containing 5 nM GST-ERRα ligand-binding domain (final concentration 1.25 nM) was added to a 384 well plate, then […] XCT-790 (final concentration 10 μM), or 12 μM compound (final concentration 3 μM) was added. Furthermore, an assay buffer containing XL665 conjugated Streptavidine, Eu^3+criptate conjugated GST antibody and 200 nM biotinylated SRC-1 (676-700) (final concentration 100 nM) was added, and the mixture was reacted at room temperature for 2 hr. Using Multiplate reader Envision (Perkin Elmer Inc.), after excitation at 320 nm, fluorescence values at 615 nm and 665 nm were measured. The inverse agonist activity of the compound was calculated in percentage with the 615/665 ratio value inhibited by no addition of compound as 0%, and with addition of final concentration 10 μM of XCT-790 (N-[5-(trifluoromethyl)-1,3,4-thiadiazol-2-yl]-2-cyano-3-[3-methoxy-4-[2,4-di(trifluoromethyl)benzyloxy]phenyl]propenamide) as 100%.
# [3] = target: T2, fusion protein containing GAL4-DNA-binding domain and ERR full-length (Homo sapiens, UniProt P11474); test: Reporter assay system using 293T cells (GAL4-ERR luciferase, inverse agonist activity); assay type: cell-based; settings: HEK-293T; compound final concentration 3 μM, 1 day; luciferase activity in 293T cells; no compound = 0%, 10 μM XCT-790 = 100%; read-out: inhibition rate (%) at 3 μM
# T2 construct: expressed in transfected cells; host or cells: 293T cells
# T2 sequence (P11474 1-423): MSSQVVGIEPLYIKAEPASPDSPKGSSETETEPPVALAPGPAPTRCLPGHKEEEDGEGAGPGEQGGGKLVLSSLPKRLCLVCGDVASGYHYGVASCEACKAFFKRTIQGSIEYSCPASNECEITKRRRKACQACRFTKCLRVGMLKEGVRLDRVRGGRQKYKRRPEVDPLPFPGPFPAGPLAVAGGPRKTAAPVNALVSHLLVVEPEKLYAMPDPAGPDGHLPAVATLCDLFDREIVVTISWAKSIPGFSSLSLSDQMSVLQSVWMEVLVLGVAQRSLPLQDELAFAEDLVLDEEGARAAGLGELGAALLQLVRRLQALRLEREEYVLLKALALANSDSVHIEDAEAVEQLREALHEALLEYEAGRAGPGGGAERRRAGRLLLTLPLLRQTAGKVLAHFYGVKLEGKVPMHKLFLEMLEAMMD
# Experimental: Compound Evaluation in Reporter Assay System Using 293T Cells
# 293T cells were seeded in a 150 cm^2 flask by 6,000,000 cells, and cultured in a medium (DMEM medium containing 10% inactivated Fetal Bovine Serum sterile filtered (FBS), 50 μg/ml Gentamicin, 10 mM HEPES buffer (pH 7.4)) at 37° C. in the presence of 5% CO2 for 1 day.
# Then, vector DNA having a gene encoding a fusion protein containing GAL4-DNA-binding domain and ERR full-length and a vector DNA wherein luciferase gene is fused at the downstream of GAL4-binding sequence were cotransfected by a lipofection method, and the cells were cultured at 37° C. in the presence of 5% CO2 for 1 day. The cells were recovered, sown in a 384 well plate by 15,000 cells, and cultured at 37° C. in the presence of 5% CO2 for 3 hr. Furthermore, 50 μM XCT-790 (final concentration 10 μM) or 15 μM compound (final concentration 3 μM) was added, and the cells were cultured at 37° C. in the presence of 5% CO2 for 1 day. The luciferase activity was measured by using a multiplate reader Envision (Perkin Elmer Inc.). The inverse agonist activity of the compound was calculated in percentage with the luciferase activity inhibited by no addition of compound as 0%, and with addition of final concentration 10 μM of XCT-790 (N-[5-(trifluoromethyl)-1,3,4-thiadiazol-2-yl]-2-cyano-3-[3-methoxy-4-[2,4-di(trifluoromethyl)benzyloxy]phenyl]propenamide) as 100%.
inhibition at 3 µM [2],inhibition at 3 µM [3],Structure (SMILES),inhibition at 10 µM [1]
103%,91%,"CCN1C(=N)/C(=C/c2ccc(OCc3ccc(C(F)(F)F)cc3C(F)(F)F)c(OC)c2)N(C)C1=O [Example 32, (4Z)-4-[(4-{[2,4-bis(trifluoromethyl)benzyl]oxy}-3-methoxyphenyl)methylidene]-1-ethyl-5-imino-3-methylimidazolidin-2-one]",98%
92%,94%,"CCN1C(=N)/C(=C\c2ccc(Oc3ccc(C#N)cc3C(F)(F)F)c(OC)c2)N(C)C1=O [Example 143, 4-{4-[(E)-(1-ethyl-5-imino-3-methyl-2-oxoimidazolidin-4-ylidene)methyl]-2-methoxyphenoxy}-3-(trifluoromethyl)benzonitrile]",88%
98%,89%,"CCN1C(=N)/C(=C/c2ccc(Oc3ccc(C#N)cc3C(F)(F)F)c(OC)c2)NC1=O [Example 25, 4-{4-[(Z)-(1-ethyl-5-imino-2-oxoimidazolidin-4-ylidene)methyl]-2-methoxyphenoxy}-3-(trifluoromethyl)benzonitrile]",61%
105%,88%,"COc1cc(/C=C2\SC(=O)N=C2NCCC2CCCN2C)ccc1Oc1ccc(C#N)cc1C(F)(F)F (stereo not drawn) [Example 93, 4-(2-methoxy-4-{(Z)-[4-{[2-(1-methylpyrrolidin-2-yl)ethyl]amino}-2-oxo-1,3-thiazol-5(2H)-ylidene]methyl}phenoxy)-3-(trifluoromethyl)benzonitrile]",101%
93%,95%,"CCN1C(=N)/C(=C/c2ccc(Oc3ccc(C#N)cc3C(F)(F)F)c(OC)c2)N(C)C1=O [Example 145, 4-{4-[(Z)-(1-ethyl-5-imino-3-methyl-2-oxoimidazolidin-4-ylidene)methyl]-2-methoxyphenoxy}-3-(trifluoromethyl)benzonitrile]",98%
105%,93%,"COc1cc(/C=C2\SC(=O)N=C2NCC(C)(C)O)ccc1Oc1ccc(C#N)cc1C(F)(F)F [Example 116, 4-{4-[(Z)-{4-[(2-hydroxy-2-methylpropyl)amino]-2-oxo-1,3-thiazol-5(2H)-ylidene}methyl]-2-methoxyphenoxy}-3-(trifluoromethyl)benzonitrile]",101%
107%,90%,"CCN(CC)CCNC1=NC(=O)S/C1=C\c1ccc(Oc2ccc(C(F)(F)F)cc2Cl)c(OC)c1 [Example 94, (5Z)-5-({4-[2-chloro-4-(trifluoromethyl)phenoxy]-3-methoxyphenyl}methylidene)-4-{[2-(diethylamino)ethyl]amino}-1,3-thiazol-2(5H)-one]",100%
114%,87%,"COc1cc(/C=C2\SC(=O)N=C2NCCC2CCCN2C)ccc1Oc1ccc(C#N)c2ccccc12 (stereo not drawn) [Example 96, 4-(2-methoxy-4-{(Z)-[4-{[2-(1-methylpyrrolidin-2-yl)ethyl]amino}-2-oxo-1,3-thiazol-5(2H)-ylidene]methyl}phenoxy)naphthalene-1-carbonitrile]",102%
